Experimental data from patent US7776847B2, “Benzisothiazoles useful for treating or preventing HCV infection” (priority 2005, dated 2010).

test system: HCV replicon; test: HCV replicon luciferase reporter assay; assay type: cell-based; conditions: Hepatitis C virus, Table 5; read-out: IC50
Method: The inhibitory activity of certain exemplary compounds of the invention was confirmed using an HCV replicon assay. The HCV replicon can include such features as the HCV IRES, the HCV 3′ untranslated region, selected HCV genes encoding HCV polypeptides, selectable markers, and a reporter gene such as luciferase, GFP, etc. In the assay, actively dividing replicon-comprising cells were seeded at a density of between about 5,000 and 7,500 cells/well onto 96 well plates (about 90 μl of cells per well) and incubated at 37° C. and 5% CO2 for 24 hours. Then, the test compound (in a volume of about 10 μL) was added at various concentrations to each well and the cells were incubated for an additional 24-48 hours. The cells were harvested, and HCV replication or translation was monitored via a reporter assay, e.g., a luciferase reporter assay. The media was aspirated from each cell and Bright-Glo ([…].) luciferase assay reagents were added to each well according to the manufacturer's instructions. In this assay, the amount of test compound that yielded a 50% reduction in luciferase activity (IC50) was determined.

| SMILES | IC50 [µM] |
| --- | --- |
| COC(=O)c1cnc(NCCCNc2nsc3ccccc23)cc1C(F)(F)F [Compound 284, methyl 6-(3-(benzo[d]isothiazol-3-ylamino)propylamino)-4-(trifluoromethyl)nicotinate] | < 5 |
| COc1ccc(C(=O)NCCCNc2nsc3ccccc23)cc1OC1CCCC1 [Compound 286, N-(3-(benzo[d]isothiazol-3-ylamino)propyl)-3-(cyclopentyloxy)-4-methoxybenzamide] | < 5 |
| Brc1ccc(CNCCCNc2nsc3ccccc23)cc1 [Compound 287, N^1-(benzo[d]isothiazol-3-yl)-N^3-(4-bromobenzyl)propane-1,3-diamine] | < 5 |
| CCCCc1ccc(CNCCCNc2nsc3ccccc23)cc1 [Compound 288, N^1-(benzo[d]isothiazol-3-yl)-N^3-(4-butylbenzyl)propane-1,3-diamine] | < 5 |
| O=C(NCCCNc1nsc2ccccc12)c1ccc(Br)cc1 [Compound 289, N-(3-(benzo[d]isothiazol-3-ylamino)propyl)-4-bromobenzamide] | < 5 |
| CCCNc1ccc(C(=O)NCCCNc2nsc3ccccc23)cc1 [Compound 290, N-(3-(benzo[d]isothiazol-3-ylamino)propyl)-4-(propylamino)benzamide] | < 5 |
| COc1ccc(-c2ccc(CNCCCNc3nsc4ccccc34)cc2)cc1 [Compound 291, N^1-(benzo[d]isothiazol-3-yl)-N^3-((4′-methoxybiphenyl-4-yl)methyl)propane-1,3-diamine] | < 5 |
| COc1ccc(-c2ccc(CNCCCNc3nsc4ccccc34)cc2)cc1OC [Compound 292, N^1-(benzo[d]isothiazol-3-yl)-N^3-((3′,4′-dimethoxybiphenyl-4-yl)methyl)propane-1,3-diamine] | < 5 |
| CCCCc1ccc(CN(CCCNc2nsc3ccccc23)C(=O)c2ccccn2)cc1 [Compound 293, N-(3-(benzo[d]isothiazol-3-ylamino)propyl)-N-(4-butylbenzyl)picolinamide] | < 5 |
| COc1ccc(Cl)cc1-c1ccc(CNCCCNc2nsc3ccccc23)cc1 [Compound 294, N^1-(benzo[d]isothiazol-3-yl)-N^3-((5′-chloro-2′-methoxybiphenyl-4-yl)methyl)propane-1,3-diamine] | < 5 |
| CCCCc1ccc(NCCCNc2nsc3ccccc23)cc1 [Compound 295, N^1-(benzo[d]isothiazol-3-yl)-N^3-(4-butylphenyl)propane-1,3-diamine] | < 5 |
| CCN1CCN(c2ccc(C(=O)NCCCNc3nsc4ccccc34)cc2)CC1 [Compound 296, N-(3-(benzo[d]isothiazol-3-ylamino)propyl)-4-(4-ethylpiperazin-1-yl)benzamide] | < 5 |
| O=C(NCCCNc1nsc2ccccc12)c1ccc(NCc2ccccn2)cc1 [Compound 297, N-(3-(benzo[d]isothiazol-3-ylamino)propyl)-4-(pyridin-2-ylmethylamino)benzamide] | < 5 |
| CC(C)Nc1ccc(C(=O)NCCCNc2nsc3ccccc23)cc1 [Compound 298, N-(3-(benzo[d]isothiazol-3-ylamino)propyl)-4-(isopropylamino)benzamide] | < 5 |
| Brc1cccc(CNCCCNc2nsc3ccccc23)c1 [Compound 299, N^1-(benzo[d]isothiazol-3-yl)-N^3-(3-bromobenzyl)propane-1,3-diamine] | < 5 |
| COc1ccc(-c2cccc(CNCCCNc3nsc4ccccc34)c2)cc1 [Compound 300, N^1-(benzo[d]isothiazol-3-yl)-N^3-((4′-methoxybiphenyl-3-yl)methyl)propane-1,3-diamine] | < 5 |
| COc1ccc(-c2cccc(CNCCCNc3nsc4ccccc34)c2)cc1OC [Compound 301, N^1-(benzo[d]isothiazol-3-yl)-N^3-((4′,5′-dimethoxybiphenyl-3-yl)methyl)propane-1,3-diamine] | < 5 |
| COc1ccc(Cl)cc1-c1cccc(CNCCCNc2nsc3ccccc23)c1 [Compound 302, N^1-(benzo[d]isothiazol-3-yl)-N^3-((3′-chloro-6′-methoxybiphenyl-3-yl)methyl)propane-1,3-diamine] | < 5 |
| Oc1ccc(Br)cc1CNCCCNc1nsc2ccccc12 [Compound 303, 2-((3-(benzo[d]isothiazol-3-ylamino)propylamino)methyl)-4-bromophenol] | < 5 |
| COc1ccc(CNCCCNc2nsc3ccccc23)cc1O [Compound 304, 5-((3-(benzo[d]isothiazol-3-ylamino)propylamino)methyl)-2-methoxyphenol] | < 5 |

| SMILES | IC50 [µM] |
| --- | --- |
| c1ccc(CN2CCCC(NCCCNc3nsc4ccccc34)C2)cc1 (stereo not shown) [Compound 306, N^1-(benzo[d]isothiazol-3-yl)-N^3-(1-benzylpiperidin-3-yl)propane-1,3-diamine] | < 5 |
| CC(C)(C)OC(=O)N1CCC(NCCCNc2nsc3ccccc23)CC1 [Compound 307, tert-butyl 4-(3-(benzo[d]isothiazol-3-ylamino)propylamino)piperidine-1-carboxylate] | < 5 |
| c1cncc(CNCCCNc2nsc3ccccc23)c1 [Compound 308, N^1-(benzo[d]isothiazol-3-yl)-N^3-(pyridin-3-ylmethyl)propane-1,3-diamine] | > 5 |
| c1ccc(CNCCCNc2nsc3ccccc23)nc1 [Compound 309, N^1-(benzo[d]isothiazol-3-yl)-N^3-(pyridin-2-ylmethyl)propane-1,3-diamine] | > 5 |
| CCCCOc1cc(C(=O)NCCNc2nsc3ccc(NCCC)cc23)ccc1OC [Compound 310, 3-butoxy-4-methoxy-N-(2-(5-(propylamino)benzo[d]isothiazol-3-ylamino)ethyl)benzamide] | < 5 |
| O=C1NC(CNc2nsc3ccccc23)C(=O)N1c1ccc(I)cc1 (stereo not shown) [Compound 311, 5-((benzo[d]isothiazol-3-ylamino)methyl)-3-(4-iodophenyl)imidazolidine-2,4-dione] | > 5 |
| COc1ccc(-c2ccccc2CNCCCNc2nsc3ccccc23)cc1 [Compound 312, N^1-(benzo[d]isothiazol-3-yl)-N^3-((4′-methoxybiphenyl-2-yl)methyl)propane-1,3-diamine] | < 5 |
| COc1ccc(-c2ccccc2CNCCCNc2nsc3ccccc23)cc1OC [Compound 313, N^1-(benzo[d]isothiazol-3-yl)-N^3-((3′,4′-dimethoxybiphenyl-2-yl)methyl)propane-1,3-diamine] | < 5 |
| COc1ccc(-c2ccc(CN(CCCNc3nsc4ccccc34)C(=O)N3CCOCC3)cc2)cc1 [Compound 314, N-(3-(benzo[d]isothiazol-3-ylamino)propyl)-N-((4′-methoxybiphenyl-4-yl)methyl)morpholine-4-carboxamide] | < 5 |
| COc1ccc(-c2ccc(CN(CCCNc3nsc4ccccc34)C(=O)N(C)C)cc2)cc1 [Compound 315, 1-(3-(benzo[d]isothiazol-3-ylamino)propyl)-1-((4′-methoxybiphenyl-4-yl)methyl)-3,3-dimethylurea] | < 5 |
| COc1ccc(-c2ccc(CN(CCCNc3nsc4ccccc34)S(=O)(=O)c3cn(C)c(C)n3)cc2)cc1 [Compound 316, N-(3-(benzo[d]isothiazol-3-ylamino)propyl)-N-((4′-methoxybiphenyl-4-yl)methyl)-1,2-dimethyl-1H-imidazole-4-sulfonamide] | < 5 |
| COC(=O)c1ccc(S(=O)(=O)N(CCCNc2nsc3ccccc23)Cc2ccc(-c3ccc(OC)cc3)cc2)n1C [Compound 317, methyl 5-(N-(3-(benzo[d]isothiazol-3-ylamino)propyl)-N-((4′-methoxybiphenyl-4-yl)methyl)sulfamoyl)-1-methyl-1H-pyrrole-2-carboxylate] | < 5 |
| COc1ccc(-c2ccc(CN(CCCNc3nsc4ccccc34)C(=O)CC#N)cc2)cc1 [Compound 319, N-(3-(benzo[d]isothiazol-3-ylamino)propyl)-2-cyano-N-((4′-methoxybiphenyl-4-yl)methyl)acetamide] | < 5 |
| COc1ccc(-c2ccc(CN(CCCNc3nsc4ccccc34)C(=O)CC3CCCN3)cc2)cc1 (stereo not shown) [Compound 320, N-(3-(benzo[d]isothiazol-3-ylamino)propyl)-N-((4′-methoxybiphenyl-4-yl)methyl)-2-(pyrrolidin-2-yl)acetamide] | < 5 |
| CCCCc1ccc(C(=O)NCCCNc2n[s+]([O-])c3ccccc23)cc1 (stereo not shown) [Compound 321, 4-butyl-N-{3-[(1-oxido-1,2-benzisothiazol-3-yl)amino]propyl}benzamide] | > 5 |
| CCCCc1ccc(C(=O)NCCCNC2=NS(=O)(=O)c3ccccc32)cc1 [Compound 322, 4-butyl-N-{3-[(1,1-dioxido-1,2-benzisothiazol-3-yl)amino]propyl}benzamide] | > 5 |
| COc1ccc(-c2ccc(CNCCCNC3=NS(=O)(=O)c4ccccc43)cc2)cc1 [Compound 324, N-(1,1-dioxido-1,2-benzisothiazol-3-yl)-N′-[(4′-methoxybiphenyl-4-yl)methyl]propane-1,3-diamine] | > 5 |
| O=S(=O)(NCCCNc1nsc2ccccc12)c1ccc(I)cc1 [Compound 325, N-(3-(benzo[d]isothiazol-3-ylamino)propyl)-4-iodobenzenesulfonamide] | < 5 |
| FC(F)(F)c1ccccc1CNCCCNc1nsc2ccccc12 [Compound 326, N^1-(benzo[d]isothiazol-3-yl)-N^3-(2-(trifluoromethyl)benzyl)propane-1,3-diamine] | < 5 |
| COc1cc(CNCCCNc2nsc3ccccc23)c(OCc2ccccc2)cc1OC [Compound 327, N^1-(benzo[d]isothiazol-3-yl)-N^3-(2-(benzyloxy)-4,5-dimethoxybenzyl)propane-1,3-diamine] | < 5 |
